# Measured values: patent publication US4418064A, “Chemotherapeutically active maytansinoids: treflorine, trenudine, and N-methyltrenudone” (priority 1982, dated 1983)
# What was measured:
# [1] = test system: lymphocytic leukemia P388; settings: cited from earlier work; for dosage level at which activity in the PS system was demonstrated: U.S. Pat. No. 4,313,946; for activity against lymphocytic leukemia P388: at the microgram per kilogram level, Wani et al.
# [2] = test system: human epidermoid carcinoma of the mouth (KB); experiment: cells; settings: for IC50: Homo sapiens, KB, 72 h, read-out: ED50; for KB cytotoxicity compared with that reported for maytansine, maytanbutine and others: compared with Kupchan, J. Med. Chem. 21, Table II
# Procedure: The KB Cell Culture Screen used in guiding the above-described fractionations was conducted in accordance with the National Cancer Institute (NCI) Protocol 1.600 [Geran et al., Cancer Chemother. Rep., Part 3, 3: 17 (1972)] in which the effectiveness of the test compounds against cultivated cells of human epidermoid carcinoma of the mouth was evaluated. […] Such a dose is referred to as ED50 and activity is indicated for ED50 levels of ≤30 μg./ml. The smaller the ED50 level, the more cytotoxic the test material.
# [3] = test system: European corn borer; settings: U.S. Pat. No. 4,315,929; cited from earlier work
# [4] = test system: lymphocytic leukemia P388; experiment: PS system, lymphocytic leukemia P388 in mice, NCI Protocol 1.200, survival; type: in vivo; settings: i.p. once a day for 9 days
# Procedure: Another indication of fraction activity is the effectiveness in the PS system against lymphocytic leukemia P388 in mice. These assays are conducted according to the NCI Protocol 1.200 described in Geran et al., supra. Starting 24 hours after the tumor implantation, previously determined doses of each compound were injected intraperitoneally once a day for 9 days. Survival time of treated leukemic mice is compared to that of untreated mice (T/C×100). A T/C value of 100% indicates no activity. A T/C value greater than 100% means that the treated mice are surviving longer than the control mice. A compound giving a T/C value greater than 125% is indicative of activity as defined by the NCI Protocols, above.
# [5] = test system: B16 melanocarcinoma; experiment: B1 system, B16 melanocarcinoma in mice, NCI Protocol 1.300; type: in vivo; settings: i.p. once a day for 9 days, host sex M
# Procedure: The compounds were also evaluated in the B1 system against B16 melanocarcinoma in mice. This assay is conducted in accordance with the NCI Protocol 1.300 described in Geran et al., supra. Starting 24 hours after the tumor implantation, predetermined doses of the compound were injected intraperitoneally once a day for 9 days. The results are reported in Table VI below as the percent T/C.
# [6] = test system: leukemia; settings: Kupchan et al., J. Org. Chem. 42; cited from earlier work
# [7] = 4.00 μg./kg./inj., distilled water + alcohol
# [8] = 8.00 μg./kg./inj., distilled water + alcohol
# [9] = 16.00 μg./kg./inj., distilled water + alcohol
# [10] = 32.00 μg./kg./inj., distilled water + alcohol
# [11] = 4.00 μg./kg./inj., distilled water + alcohol, host sex M
# [12] = 8.00 μg./kg./inj., distilled water + alcohol, host sex M
# [13] = 16.00 μg./kg./inj., distilled water + alcohol, host sex M
# [14] = 32.00 μg./kg./inj., distilled water + alcohol, host sex M
structure (smiles),measurement,setting,value
"COc1cc2cc(c1Cl)N(C)C(=O)C[C@H](OC(=O)[C@H](C)N(C)C(=O)C(C)C)[C@]1(C)O[C@H]1[C@H](C)[C@@H]1C[C@@](O)(NC(=O)O1)[C@H](OC)/C=C/C=C(\C)C2OC (some centres unmarked) [trewiasine, reference compound]",dosage level at which activity in the PS system was demonstrated,[1],4 µg/kg
same,ED50,"[2]; dose that inhibits growth to 50% of control, 3 days after drug addition",0.2 ng/mL
same,control of the European corn borer,[3],effective in controlling the European corn borer
same,T/C (%),"[4]; 4.00 μg./kg./inj., vehicle Klucel, host sex F",163%
same,T/C (%),"[4]; 8.00 μg./kg./inj., vehicle Klucel, host sex F",140%
same,T/C (%),"[4]; 16.00 μg./kg./inj., vehicle Klucel, host sex F",154%
same,T/C (%),"[4]; 32.00 μg./kg./inj., vehicle Klucel, host sex F",128%
same,T/C (%),"[4]; 64.00 μg./kg./inj., vehicle Klucel, host sex F",91%
same,T/C (%),"[5]; 1.00 μg./kg./inj., vehicle Klucel",133%
same,T/C (%),"[5]; 2.00 μg./kg./inj., vehicle Klucel",140%
same,T/C (%),"[5]; 4.00 μg./kg./inj., vehicle Klucel",157%
same,T/C (%),"[5]; 8.00 μg./kg./inj., vehicle Klucel",185%
same,T/C (%),"[5]; 16.00 μg./kg./inj., vehicle Klucel",172%
same,T/C (%),"[5]; 32.00 μg./kg./inj., vehicle Klucel",183%
COc1cc2cc(c1Cl)N1CC(O)C(C)(O)C(=O)NC(C)C(=O)O[C@@H](CC1=O)[C@]1(C)O[C@H]1[C@H](C)[C@@H]1C[C@@](O)(NC(=O)O1)[C@H](OC)/C=C/C=C(\C)C2OC (some centres unmarked) [trenudine],IC50,[2],0.64 ng/mL
same,"KB cytotoxicity compared with that reported for maytansine, maytanbutine and others",[2],at least one order of magitude less
same,T/C (%),"[4]; 2.00 μg./kg./inj., distilled water + alcohol, host sex F",144%
same,T/C (%),"[4]; 4.00 μg./kg./inj., distilled water + alcohol, host sex F",137%
same,T/C (%),"[4]; 8.00 μg./kg./inj., distilled water + alcohol, host sex F",146%
same,T/C (%),"[4]; 16.00 μg./kg./inj., distilled water + alcohol, host sex F",137%
same,T/C (%),"[4]; 32.00 μg./kg./inj., distilled water + alcohol, host sex F",toxic
same,T/C (%),"[5]; 1.00 μg./kg./inj., distilled water + alcohol",137%
same,T/C (%),"[5]; 2.00 μg./kg./inj., distilled water + alcohol",147%
same,T/C (%),[5]; [7],145%
same,T/C (%),[5]; [8],176%
same,T/C (%),[5]; [9],197%
same,T/C (%),[5]; [10],toxic
COc1cc2cc(c1Cl)N(C)C(=O)C[C@H](OC(=O)C(C)C)[C@]1(C)O[C@H]1[C@H](C)[C@@H]1C[C@@](O)(NC(=O)O1)[C@H](OC)/C=C/C=C(\C)C2OC(C)=O (some centres unmarked) [maytanbutacine],antileukemic activity,[6],antileukemic principle
C=C(C)C(=O)N(C)[C@@H](C)C(=O)O[C@H]1CC(=O)N(C)c2cc(cc(OC)c2Cl)C(OC)/C(C)=C/C=C/[C@@H](OC)[C@@]2(O)C[C@H](OC(=O)N2)[C@@H](C)[C@@H]2O[C@@]12C (some centres unmarked) [dehydrotrewiasine],dosage level at which activity in the PS system was demonstrated,[1],4 µg/kg
COc1cc2cc(c1Cl)N1CCC(C)(O)C(=O)NC(C)C(=O)O[C@@H](CC1=O)[C@]1(C)O[C@H]1[C@H](C)[C@@H]1C[C@@](O)(NC(=O)O1)[C@H](OC)/C=C/C=C(\C)C2OC (some centres unmarked) [treflorine],IC50,[2],0.27 ng/mL
same,"KB cytotoxicity compared with that reported for maytansine, maytanbutine and others",[2],at least one order of magitude less
same,T/C (%),[4]; [11],150%
same,T/C (%),[4]; [12],144%
same,T/C (%),[4]; [13],157%
same,T/C (%),[4]; [14],150%
same,T/C (%),[5]; [7],130%
same,T/C (%),[5]; [8],160%
same,T/C (%),[5]; [9],162%
same,T/C (%),[5]; [10],178%
COc1cc2cc(c1Cl)N(C)C(=O)C[C@H](OC(=O)[C@H](C)N(C)C(=O)C(C)C)[C@]1(C)O[C@H]1[C@H](C)[C@@H]1C[C@@](O)(NC(=O)O1)[C@H](OC)/C=C/C=C(\C)C2O (some centres unmarked) [colubrinol],activity against lymphocytic leukemia P388,[1],demonstrated activity
COc1cc2cc(c1Cl)N1CC(=O)C(C)(O)C(=O)N(C)C(C)C(=O)O[C@@H](CC1=O)[C@]1(C)O[C@H]1[C@H](C)[C@@H]1C[C@@](O)(NC(=O)O1)[C@H](OC)/C=C/C=C(\C)C2OC (some centres unmarked) [N-methyltrenudone],IC50,[2],< 10 ng/mL
same,T/C (%),[4]; [11],153%
same,T/C (%),[4]; [12],108%
same,T/C (%),[4]; [13],toxic
same,T/C (%),[4]; [14],toxic
same,T/C (%),[5]; [7],109%
same,T/C (%),[5]; [8],93%
same,T/C (%),[5]; [9],111%
same,T/C (%),[5]; [10],95%
COc1cc2cc(c1Cl)N(C)C(=O)C[C@H](OC(=O)[C@H](C)N(C)C(=O)C(C)C)[C@]1(C)O[C@H]1[C@H](C)[C@@H]1C[C@@](O)(NC(=O)O1)[C@H](OC)/C=C/C=C(\C)C2OC(C)=O (some centres unmarked) [colubrinol acetate],activity against lymphocytic leukemia P388,[1],demonstrated activity
